Several values for one entry are separate records, joined by “and”; a condition that tells them apart may be missing. Equal entries are not always repeated.
How the values were obtained:
[1] = test system: Dirofilaria immitis L3/L4; test: Dirofilaria immitis L3/L4 motility assay (DiroImager, 72 h); details: Dirofilaria immitis L4
Pristionchus pacificus = Pristionchus pacificus motor disruption dose-response on solid media, 1 h; details: for mean % any phene (coiled, jerky-Unc or paralyzed): Pristionchus pacificus young adults; for mean % any phene (coiled, jerky-Unc or paralyzed) / mean % any phene: mean of three biological replicates; for EC50: Pristionchus pacificus, 1 h, read-out: P. pacificus motor disruption EC50; for mean % any phene: any phenotype (coiled, jerky-Unc or paralyzed) at one hour; for rep 1 atypical locomotion / rep 1 coiled / rep 1 no phene / rep 1 paralyzed / rep 2 atypical locomotion / rep 2 coiled / rep 2 no phene / rep 2 paralyzed / rep 3 atypical locomotion / rep 3 coiled / rep 3 no phene / rep 3 paralyzed: count of 20 animals per trial, one hour
Experimental: Locomotor phenotype analyses were done in 24-well plates with 1 mL of MYOB substrate (27.5 g Trizma HCl, 12 g Trizma Base, 230 g bacto tryptone, 10 g NaCl, 0.4 g cholesterol (95%)) seeded with 25 µL of OP50 Escherichia coli on each well. Each compound was added to the MYOB substrate before pouring to achieve the desired final concentrations of 30 µM or 60 µM after diffusion through the media. Synchronized young adult worms are transferred into each well using a platinum wire pick. A Leica MZ75 stereomicroscope was used to visualize the movement of worms on the solid substrate. The specific dominant locomotor phenotype (i.e. ‘Punc’, ‘paralyzed’, ‘coiler’ or ‘wild-type locomotion’) was scored after the touch on the head with a platinum wire over a ~3–5 s of observation. […] Coiled animals were not scored as paralyzed despite sometimes not responding to light touch.

C. elegans [2] = test: C. elegans motor phenotype scoring on solid media (Punc/jerky-unc, coiled, paralyzed), wild-type young adults; assay type: in vivo, Caenorhabditis elegans; details: for atypical locomotion (number of animals) / coiled (number of animals) / no phene (number of animals) / paralyzed (number of animals) / any phene: mean % fraction of young adults exhibiting any phenotype (coiled, jerky-Unc or paralyzed): one hour; for atypical locomotion (number of animals) / coiled (number of animals) / no phene (number of animals) / paralyzed (number of animals): young adults, 20 animals per trial, single technical replicate; for any phene: mean % fraction of young adults exhibiting any phenotype (coiled, jerky-Unc or paralyzed): mean of three biological replicates; for EC50: Caenorhabditis elegans, any motor phenotype after 1 h on solid media, ± 95% CI, read-out: C. elegans - motor disruption EC50
[3] = test system: Dirofilaria immitis microfilariae; test: Dirofilaria immitis microfilariae immobility assay (DiroImager, 72 h); details: for % effect (motility), DIROIM MF: Dirofilaria immitis microfilariae; for EC50: Dirofilaria immitis, 72 h, read-out: Dirofilaria immitis filariae EC50
Procedure, shortened: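 Motility read after 72 h drug exposure with an image-based high-throughput plate imager, 1% DMSO medium serving as negative control. Missouri-isolate microfilariae, roughly 250 per well, freshly purified and cultured in supplemented RPMI 1640.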

C. elegans [4] = test: Suppression of trichlorfon (AChE inhibitor) paralysis, double dose-response, scored after 80 min; assay type: in vivo, Caenorhabditis elegans; details: for EC50: Caenorhabditis elegans, ± 95% CI; for % para (percentage of animals able to adopt a clear sinusoidal wave pattern upon touch on the nose): wild-type, bio rep 1-3

O=[N+]([O-])c1ccc(N2CCN(C3CCCC3)CC2)cc1 [Nemacol-61]
% effect (motility), DIROIM L4 ([1]; 2 µM): 0% | % effect (motility), DIROIM L4 ([1]; 10 µM): 0% | % effect (motility), DIROIM L4 ([1]; 50 µM): 20% | mean % any phene (coiled, jerky-Unc or paralyzed) (Pristionchus pacificus; conc 3.75, observed at one hour): 12.5% | mean % any phene (coiled, jerky-Unc or paralyzed) (Pristionchus pacificus; conc 15, observed at one hour): 9.167% | mean % any phene (coiled, jerky-Unc or paralyzed) (Pristionchus pacificus; conc 60, observed at one hour): 88.3333% | EC50 (Pristionchus pacificus): 31.2 ± 9.6 µM | atypical locomotion (number of animals) (C. elegans [2]; 3.75uM): 0 and 1 | coiled (number of animals) (C. elegans [2]; 3.75uM): 0 and 17 and 13 | no phene (number of animals) (C. elegans [2]; 3.75uM): 20 and 19 and 3 and 7 | paralyzed (number of animals) (C. elegans [2]; 3.75uM): 0 | any phene: mean % fraction of young adults exhibiting any phenotype (coiled, jerky-Unc or paralyzed) (C. elegans [2]; 3.75uM): 25.8333% | atypical locomotion (number of animals) (C. elegans [2]; 15uM): 10 and 13 and 12 and 2 and 4 | coiled (number of animals) (C. elegans [2]; 15uM): 0 and 1 and 2 and 18 and 16 | no phene (number of animals) (C. elegans [2]; 15uM): 8 and 7 and 5 and 4 and 0 | paralyzed (number of animals) (C. elegans [2]; 15uM): 2 and 0 and 4 | any phene: mean % fraction of young adults exhibiting any phenotype (coiled, jerky-Unc or paralyzed) (C. elegans [2]; 15uM): 80% | atypical locomotion (number of animals) (C. elegans [2]; 60uM): 0 and 17 and 18 | coiled (number of animals) (C. elegans [2]; 60uM): 19 and 12 and 13 and 3 and 2 | no phene (number of animals) (C. elegans [2]; 60uM): 0 | paralyzed (number of animals) (C. elegans [2]; 60uM): 1 and 8 and 7 and 0 | any phene: mean % fraction of young adults exhibiting any phenotype (coiled, jerky-Unc or paralyzed) (C. elegans [2]; 60uM): 100% | EC50 (C. elegans [2]): 6.8 ± 4.1 µM | % effect (motility), DIROIM MF ([3]; 0.016 µM): 0% | % effect (motility), DIROIM MF ([3]; 0.08 µM): 0% | % effect (motility), DIROIM MF ([3]; 0.4 µM): 0% | % effect (motility), DIROIM MF ([3]; 2 µM): 0% | % effect (motility), DIROIM MF ([3]; 10 µM): 40% | EC50 [3]: 11 µM

O=[N+]([O-])c1ccc(N2CCN(C3CCCCC3)CC2)cc1 [Nemacol-64]
% effect (motility), DIROIM L4 ([1]; 2 µM): 0% | % effect (motility), DIROIM L4 ([1]; 10 µM): 0% | % effect (motility), DIROIM L4 ([1]; 50 µM): 100% | EC50 (Pristionchus pacificus): 14.3 µM | mean % any phene (Pristionchus pacificus; conc 3.75): 0% | rep 1 atypical locomotion (Pristionchus pacificus; conc 3.75): 0 | rep 1 coiled (Pristionchus pacificus; conc 3.75): 0 | rep 1 no phene (Pristionchus pacificus; conc 3.75): 20 | rep 1 paralyzed (Pristionchus pacificus; conc 3.75): 0 | rep 2 atypical locomotion (Pristionchus pacificus; conc 3.75): 0 | rep 2 coiled (Pristionchus pacificus; conc 3.75): 0 | rep 2 no phene (Pristionchus pacificus; conc 3.75): 20 | rep 2 paralyzed (Pristionchus pacificus; conc 3.75): 0 | rep 3 atypical locomotion (Pristionchus pacificus; conc 3.75): 0 | rep 3 coiled (Pristionchus pacificus; conc 3.75): 0 | rep 3 no phene (Pristionchus pacificus; conc 3.75): 20 | rep 3 paralyzed (Pristionchus pacificus; conc 3.75): 0 | mean % any phene (Pristionchus pacificus; conc 15): 70.8333% | rep 1 atypical locomotion (Pristionchus pacificus; conc 15): 10 and 14 | rep 1 no phene (Pristionchus pacificus; conc 15): 7 and 5 | rep 1 paralyzed (Pristionchus pacificus; conc 15): 0 | rep 2 atypical locomotion (Pristionchus pacificus; conc 15): 14 and 12 | rep 2 no phene (Pristionchus pacificus; conc 15): 5 and 8 | rep 2 paralyzed (Pristionchus pacificus; conc 15): 0 | rep 3 atypical locomotion (Pristionchus pacificus; conc 15): 15 and 12 | rep 3 coiled (Pristionchus pacificus; conc 15): 2 and 1 | rep 3 paralyzed (Pristionchus pacificus; conc 15): 0 | mean % any phene (Pristionchus pacificus; conc 60): 100% | rep 1 atypical locomotion (Pristionchus pacificus; conc 60): 2 and 1 | rep 1 coiled (Pristionchus pacificus; conc 60): 8 and 12 | rep 1 no phene (Pristionchus pacificus; conc 60): 0 | rep 1 paralyzed (Pristionchus pacificus; conc 60): 10 and 7 | rep 2 atypical locomotion (Pristionchus pacificus; conc 60): 0 | rep 2 coiled (Pristionchus pacificus; conc 60): 9 and 11 | rep 2 no phene (Pristionchus pacificus; conc 60): 0 | rep 2 paralyzed (Pristionchus pacificus; conc 60): 11 and 9 | rep 3 coiled (Pristionchus pacificus; conc 60): 10 and 11 | rep 3 no phene (Pristionchus pacificus; conc 60): 0 | rep 3 paralyzed (Pristionchus pacificus; conc 60): 7 and 8 | atypical locomotion (number of animals) (C. elegans [2]; 3.75uM): 18 and 13 and 2 and 10 and 6 | coiled (number of animals) (C. elegans [2]; 3.75uM): 2 and 5 and 16 and 1 and 3 | no phene (number of animals) (C. elegans [2]; 3.75uM): 0 and 2 and 1 and 8 and 11 | paralyzed (number of animals) (C. elegans [2]; 3.75uM): 0 and 2 and 1 | any phene: mean % fraction of young adults exhibiting any phenotype (coiled, jerky-Unc or paralyzed) (C. elegans [2]; 3.75uM): 81.6667% | atypical locomotion (number of animals) (C. elegans [2]; 15uM): 11 and 10 and 4 and 3 and 16 and 14 | coiled (number of animals) (C. elegans [2]; 15uM): 9 and 8 and 15 and 14 and 3 and 2 | no phene (number of animals) (C. elegans [2]; 15uM): 0 and 2 | paralyzed (number of animals) (C. elegans [2]; 15uM): 0 and 2 and 1 and 3 | any phene: mean % fraction of young adults exhibiting any phenotype (coiled, jerky-Unc or paralyzed) (C. elegans [2]; 15uM): 96.746% | atypical locomotion (number of animals) (C. elegans [2]; 60uM): 3 and 2 and 8 and 1 and 0 | coiled (number of animals) (C. elegans [2]; 60uM): 14 and 16 and 3 and 0 and 7 and 5 | no phene (number of animals) (C. elegans [2]; 60uM): 0 | paralyzed (number of animals) (C. elegans [2]; 60uM): 3 and 2 and 14 and 12 and 15 | any phene: mean % fraction of young adults exhibiting any phenotype (coiled, jerky-Unc or paralyzed) (C. elegans [2]; 60uM): 100% | EC50 (C. elegans [2]): 1.6 ± 2.8 µM | % effect (motility), DIROIM MF ([3]; 0.016 µM): 0% | % effect (motility), DIROIM MF ([3]; 0.08 µM): 0% | % effect (motility), DIROIM MF ([3]; 0.4 µM): 0% | % effect (motility), DIROIM MF ([3]; 2 µM): 0% | % effect (motility), DIROIM MF ([3]; 10 µM): 40% | EC50 [3]: 11 µM

COP(=O)(OC)C(O)C(Cl)(Cl)Cl (stereo not shown) [trichlorfon]
EC50 (C. elegans [4]; read-out: EC50 of trichlorfon paralysis, nemacol-1 15 μM): 132 ± 34 µM | EC50 (C. elegans [4]; read-out: EC50 of trichlorfon paralysis, nemacol-1 30 μM): 178 ± 17 µM | EC50 (C. elegans [4]; read-out: EC50 of trichlorfon paralysis, nemacol-1 60 μM): 138 ± 60 µM | EC50 (C. elegans [4]; read-out: EC50 of trichlorfon paralysis, trichlorfon alone): 83 ± 7 µM | EC50 (C. elegans [4]; read-out: EC50 of trichlorfon paralysis, vesamicol 31.3 μM): 102 ± 11 µM | EC50 (C. elegans [4]; read-out: EC50 of trichlorfon paralysis, vesamicol 62.5 μM): 121 ± 10 µM | EC50 (C. elegans [4]; read-out: EC50 of trichlorfon paralysis, vesamicol 125 μM): 145 ± 17 µM | EC50 (C. elegans [4]; read-out: EC50 of trichlorfon paralysis, vesamicol 250 μM): 180 ± 22 µM | EC50 (C. elegans [4]; read-out: EC50 of trichlorfon paralysis, vesamicol 500 μM): 201 ± 27 µM | % para (percentage of animals able to adopt a clear sinusoidal wave pattern upon touch on the nose) (C. elegans [4]; trichlorfon 25 uM, Nemacol-1 0 uM (Nemacol-1 series)): 92.8571% and 100% | % para (percentage of animals able to adopt a clear sinusoidal wave pattern upon touch on the nose) (C. elegans [4]; trichlorfon 25 uM, vesamicol 0 uM (vesamicol series)): 92.8571% and 100% | % para (percentage of animals able to adopt a clear sinusoidal wave pattern upon touch on the nose) (C. elegans [4]; trichlorfon 50 uM, Nemacol-1 0 uM (Nemacol-1 series)): 85.7143% and 75% and 67.8571% | % para (percentage of animals able to adopt a clear sinusoidal wave pattern upon touch on the nose) (C. elegans [4]; trichlorfon 50 uM, vesamicol 0 uM (vesamicol series)): 71.4286% and 75% and 96.4286% | % para (percentage of animals able to adopt a clear sinusoidal wave pattern upon touch on the nose) (C. elegans [4]; trichlorfon 100 uM, vesamicol 0 uM (vesamicol series)): 42.8571% and 50% | % para (percentage of animals able to adopt a clear sinusoidal wave pattern upon touch on the nose) (C. elegans [4]; trichlorfon 200 uM, Nemacol-1 0 uM (Nemacol-1 series)): 7.143% and 3.571% | % para (percentage of animals able to adopt a clear sinusoidal wave pattern upon touch on the nose) (C. elegans [4]; trichlorfon 400 uM, Nemacol-1 0 uM (Nemacol-1 series)): 0% | % para (percentage of animals able to adopt a clear sinusoidal wave pattern upon touch on the nose) (C. elegans [4]; trichlorfon 400 uM, vesamicol 0 uM (vesamicol series)): 0% and 3.571% | % para (percentage of animals able to adopt a clear sinusoidal wave pattern upon touch on the nose) (C. elegans [4]; trichlorfon 800 uM, Nemacol-1 0 uM (Nemacol-1 series)): 0% | % para (percentage of animals able to adopt a clear sinusoidal wave pattern upon touch on the nose) (C. elegans [4]; trichlorfon 800 uM, vesamicol 0 uM (vesamicol series)): 0%

— publication PMC10066365, “Nemacol is a small molecule inhibitor of C. elegans vesicular acetylcholine transporter with anthelmintic potential” (Nature Communications, 2023)
